Results published in US11083725B2 (priority 2014, dated 2021).

Test system: NHBE cells
Assay: Biolog metabolic array: substrate use by NHBE cells with or without CA09 infection
Type: cell-based, human
Conditions: for Substrate use, 590 nm absorbance normalized to zero hour, 0 hr: Biolog PMM2, 0 hr; for Substrate use, 590 nm absorbance normalized to zero hour, 5 hr: Biolog PMM2, 5 hr; for Substrate use, 590 nm absorbance normalized to zero hour, 7 hr: Biolog PMM2, 7 hr; for Substrate use, 590 nm absorbance normalized to zero hour, 1 hr: Biolog PMM2, 1 hr
[1] = Control (uninfected) NHBE cells
[2] = Virus (CA09-infected, MOI 1) NHBE cells
[3] = Virus: CA09-infected NHBE cells, MOI 1, Biolog PMM2
[4] = Virus (CA09, MOI 1) infected NHBE cells

Molecule: Dextrin
- 590 nm absorbance normalized to zero hour (substrate use), 0 hr [1]: 1.00
- 590 nm absorbance normalized to zero hour (substrate use), 2 hr [1]: 3.19
- 590 nm absorbance normalized to zero hour (substrate use), 3 hr [1]: 4.01
- 590 nm absorbance normalized to zero hour (substrate use), 6 hr [1]: 4.79
- 590 nm absorbance normalized to zero hour (substrate use), 8 hr [1]: 8.34
- 590 nm absorbance normalized to zero hour (substrate use), 9 hr [1]: 9.71
- 590 nm absorbance normalized to zero hour (substrate use), 10 hr [1]: 8.28
- 590 nm absorbance normalized to zero hour (substrate use), 11 hr [1]: 8.41
- Substrate use, 590 nm absorbance normalized to zero hour, 0 hr [1]: 1.00
- Substrate use, 590 nm absorbance normalized to zero hour, 5 hr [1]: 6.14
- Substrate use, 590 nm absorbance normalized to zero hour, 7 hr [1]: 7.35
- 590 nm absorbance normalized to zero hour (substrate use), 0 hr [2]: 1.00
- 590 nm absorbance normalized to zero hour (substrate use), 1 hr [2]: 2.14
- 590 nm absorbance normalized to zero hour (substrate use), 2 hr [2]: 2.79
- 590 nm absorbance normalized to zero hour (substrate use), 3 hr [2]: 3.43
- 590 nm absorbance normalized to zero hour (substrate use), 4 hr [2]: 3.84
- 590 nm absorbance normalized to zero hour (substrate use), 5 hr [2]: 4.91
- 590 nm absorbance normalized to zero hour (substrate use), 6 hr [2]: 5.56
- 590 nm absorbance normalized to zero hour (substrate use), 7 hr [2]: 6.11
- 590 nm absorbance normalized to zero hour (substrate use), 8 hr [2]: 6.72
- 590 nm absorbance normalized to zero hour (substrate use), 9 hr [2]: 7.89
- 590 nm absorbance normalized to zero hour (substrate use), 10 hr [2]: 8.23
- 590 nm absorbance normalized to zero hour (substrate use), 11 hr [2]: 6.40
- 590 nm absorbance normalized to zero hour (substrate use), 0 hr [3]: 1.00
- 590 nm absorbance normalized to zero hour (substrate use), 1 hr [3]: 2.14
- 590 nm absorbance normalized to zero hour (substrate use), 2 hr [3]: 2.79
- 590 nm absorbance normalized to zero hour (substrate use), 3 hr [3]: 3.43
- 590 nm absorbance normalized to zero hour (substrate use), 4 hr [3]: 3.84
- 590 nm absorbance normalized to zero hour (substrate use), 5 hr [3]: 4.91
- 590 nm absorbance normalized to zero hour (substrate use), 6 hr [3]: 5.56
- 590 nm absorbance normalized to zero hour (substrate use), 7 hr [3]: 6.11
- 590 nm absorbance normalized to zero hour (substrate use), 8 hr [3]: 6.72
- 590 nm absorbance normalized to zero hour (substrate use), 9 hr [3]: 7.89
- 590 nm absorbance normalized to zero hour (substrate use), 10 hr [3]: 8.23
- 590 nm absorbance normalized to zero hour (substrate use), 11 hr [3]: 6.40

Molecule: N[C@@H](C(=O)O)[C@@H](O)[C@H](O)[C@H](O)CO [D-Glucosaminic Acid]
- 590 nm absorbance normalized to zero hour (substrate use), 0 hr [1]: 1.00
- 590 nm absorbance normalized to zero hour (substrate use), 1 hr [1]: 0.86
- 590 nm absorbance normalized to zero hour (substrate use), 2 hr [1]: 0.94
- 590 nm absorbance normalized to zero hour (substrate use), 3 hr [1]: 0.90
- 590 nm absorbance normalized to zero hour (substrate use), 4 hr [1]: 1.21
- 590 nm absorbance normalized to zero hour (substrate use), 6 hr [1]: 0.36
- 590 nm absorbance normalized to zero hour (substrate use), 8 hr [1]: 0.97
- 590 nm absorbance normalized to zero hour (substrate use), 9 hr [1]: 0.98
- 590 nm absorbance normalized to zero hour (substrate use), 10 hr [1]: 0.97
- 590 nm absorbance normalized to zero hour (substrate use), 11 hr [1]: 0.39
- Substrate use, 590 nm absorbance normalized to zero hour, 0 hr [1]: 1.00
- Substrate use, 590 nm absorbance normalized to zero hour, 1 hr [1]: 0.86
- Substrate use, 590 nm absorbance normalized to zero hour, 5 hr [1]: 1.22
- Substrate use, 590 nm absorbance normalized to zero hour, 7 hr [1]: 0.95
- Substrate use, 590 nm absorbance normalized to zero hour, 0 hr [4]: 1.00
- Substrate use, 590 nm absorbance normalized to zero hour, 1 hr [4]: 1.69
- Substrate use, 590 nm absorbance normalized to zero hour, 5 hr [4]: 3.09
- Substrate use, 590 nm absorbance normalized to zero hour, 7 hr [4]: 3.47
- 590 nm absorbance normalized to zero hour (substrate use), 0 hr [2]: 1.00
- 590 nm absorbance normalized to zero hour (substrate use), 1 hr [2]: 1.69
- 590 nm absorbance normalized to zero hour (substrate use), 2 hr [2]: 2.21
- 590 nm absorbance normalized to zero hour (substrate use), 3 hr [2]: 2.51
- 590 nm absorbance normalized to zero hour (substrate use), 4 hr [2]: 2.69
- 590 nm absorbance normalized to zero hour (substrate use), 6 hr [2]: 3.31
- 590 nm absorbance normalized to zero hour (substrate use), 8 hr [2]: 3.57
- 590 nm absorbance normalized to zero hour (substrate use), 9 hr [2]: 3.89
- 590 nm absorbance normalized to zero hour (substrate use), 10 hr [2]: 3.88
- 590 nm absorbance normalized to zero hour (substrate use), 11 hr [2]: 3.32

Molecule: Glycogen
- 590 nm absorbance normalized to zero hour (substrate use), 0 hr [1]: 1.00
- 590 nm absorbance normalized to zero hour (substrate use), 1 hr [1]: 1.61
- 590 nm absorbance normalized to zero hour (substrate use), 4 hr [1]: 2.80
- 590 nm absorbance normalized to zero hour (substrate use), 6 hr [1]: 4.32
- 590 nm absorbance normalized to zero hour (substrate use), 8 hr [1]: 4.85
- 590 nm absorbance normalized to zero hour (substrate use), 9 hr [1]: 4.87
- 590 nm absorbance normalized to zero hour (substrate use), 10 hr [1]: 4.50
- 590 nm absorbance normalized to zero hour (substrate use), 11 hr [1]: 5.01
- Substrate use, 590 nm absorbance normalized to zero hour, 0 hr [1]: 1.00
- Substrate use, 590 nm absorbance normalized to zero hour, 1 hr [1]: 1.61
- Substrate use, 590 nm absorbance normalized to zero hour, 3 hr (Control (uninfected) NHBE cells, Biolog PMM2, 3 hr): 2.58
- Substrate use, 590 nm absorbance normalized to zero hour, 7 hr [1]: 4.20
- 590 nm absorbance normalized to zero hour (substrate use), 0 hr [2]: 1.00
- 590 nm absorbance normalized to zero hour (substrate use), 1 hr [2]: 1.68
- 590 nm absorbance normalized to zero hour (substrate use), 2 hr [2]: 2.26
- 590 nm absorbance normalized to zero hour (substrate use), 3 hr [2]: 2.71
- 590 nm absorbance normalized to zero hour (substrate use), 4 hr [2]: 2.92
- 590 nm absorbance normalized to zero hour (substrate use), 5 hr [2]: 3.70
- 590 nm absorbance normalized to zero hour (substrate use), 7 hr [2]: 4.74
- 590 nm absorbance normalized to zero hour (substrate use), 8 hr [2]: 5.48
- 590 nm absorbance normalized to zero hour (substrate use), 9 hr [2]: 3.99
- 590 nm absorbance normalized to zero hour (substrate use), 10 hr [2]: 4.33
- 590 nm absorbance normalized to zero hour (substrate use), 11 hr [2]: 4.63
- 590 nm absorbance normalized to zero hour (substrate use), 0 hr [3]: 1.00
- 590 nm absorbance normalized to zero hour (substrate use), 1 hr [3]: 1.68
- 590 nm absorbance normalized to zero hour (substrate use), 2 hr [3]: 2.26
- 590 nm absorbance normalized to zero hour (substrate use), 3 hr [3]: 2.71
- 590 nm absorbance normalized to zero hour (substrate use), 4 hr [3]: 2.92
- 590 nm absorbance normalized to zero hour (substrate use), 5 hr [3]: 3.70
- 590 nm absorbance normalized to zero hour (substrate use), 7 hr [3]: 4.74
- 590 nm absorbance normalized to zero hour (substrate use), 8 hr [3]: 5.48
- 590 nm absorbance normalized to zero hour (substrate use), 9 hr [3]: 3.99
- 590 nm absorbance normalized to zero hour (substrate use), 10 hr [3]: 4.33
- 590 nm absorbance normalized to zero hour (substrate use), 11 hr [3]: 4.63
